Test results reported in patent US7087631B2, “Aryltetrazole compounds, and compositions thereof” (Inotek Pharmaceuticals Corporation, priority 2002, dated 2006).

Molecular target: xanthine oxidase (Homo sapiens, UniProt P47989)
Test: Xanthine oxidase inhibitory activity, 96 well plate, kinetic reading at 295 nm
Assay type: biochemical
[1] = compound concentration 0.1 μM, 0.1 µM

Sequence of xanthine oxidase (P47989 whole entry, species assumed): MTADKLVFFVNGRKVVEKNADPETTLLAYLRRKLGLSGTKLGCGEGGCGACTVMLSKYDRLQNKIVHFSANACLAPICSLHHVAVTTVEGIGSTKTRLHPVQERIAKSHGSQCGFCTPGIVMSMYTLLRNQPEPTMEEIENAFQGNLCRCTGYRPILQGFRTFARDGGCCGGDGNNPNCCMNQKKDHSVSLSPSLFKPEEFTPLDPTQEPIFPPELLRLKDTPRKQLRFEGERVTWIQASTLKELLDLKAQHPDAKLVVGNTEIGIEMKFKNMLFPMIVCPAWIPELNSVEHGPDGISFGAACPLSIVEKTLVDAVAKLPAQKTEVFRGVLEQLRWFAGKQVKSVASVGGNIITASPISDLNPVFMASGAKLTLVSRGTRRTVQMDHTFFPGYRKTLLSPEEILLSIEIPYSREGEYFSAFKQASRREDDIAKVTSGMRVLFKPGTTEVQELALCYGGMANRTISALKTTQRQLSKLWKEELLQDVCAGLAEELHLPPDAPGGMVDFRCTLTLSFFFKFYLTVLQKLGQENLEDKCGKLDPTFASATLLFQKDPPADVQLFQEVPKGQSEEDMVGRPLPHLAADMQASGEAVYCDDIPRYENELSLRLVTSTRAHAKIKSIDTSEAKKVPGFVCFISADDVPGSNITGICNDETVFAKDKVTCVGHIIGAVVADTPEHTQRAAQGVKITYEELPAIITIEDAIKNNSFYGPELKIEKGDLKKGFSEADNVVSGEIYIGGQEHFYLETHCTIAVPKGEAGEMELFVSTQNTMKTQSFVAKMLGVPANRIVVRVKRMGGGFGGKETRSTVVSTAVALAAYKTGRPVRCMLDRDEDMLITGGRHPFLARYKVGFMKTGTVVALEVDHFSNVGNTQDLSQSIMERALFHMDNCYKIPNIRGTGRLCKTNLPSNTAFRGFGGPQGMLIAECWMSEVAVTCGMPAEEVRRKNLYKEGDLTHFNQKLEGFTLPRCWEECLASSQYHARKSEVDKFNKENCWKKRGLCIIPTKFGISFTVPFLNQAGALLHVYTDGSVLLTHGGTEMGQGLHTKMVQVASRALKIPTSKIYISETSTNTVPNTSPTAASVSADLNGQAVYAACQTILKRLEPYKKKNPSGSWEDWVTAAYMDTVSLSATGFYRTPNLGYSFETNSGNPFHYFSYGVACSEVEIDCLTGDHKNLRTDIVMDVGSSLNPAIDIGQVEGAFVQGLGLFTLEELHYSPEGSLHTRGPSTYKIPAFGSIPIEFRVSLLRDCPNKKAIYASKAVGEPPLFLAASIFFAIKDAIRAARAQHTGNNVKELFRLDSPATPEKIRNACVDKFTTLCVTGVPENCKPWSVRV

SMILES | PERCENT XANTHINE OXIDASE INHIBITION (compound concentration 0.1 μM) [%] | PERCENT XANTHINE OXIDASE INHIBITION (compound concentration 1 μM) [%] | further results
O=C(Oc1ccccc1)c1ccc(-c2nnn[nH]2)cc1 [GC] | 97 | 100 | PERCENT XANTHINE OXIDASE INHIBITION (compound concentration 0.05 μM): 52%
O=C(OCc1cccc(Cl)c1)c1ccc(-c2nnn[nH]2)cc1 [GD] | – | 79 | PERCENT XANTHINE OXIDASE INHIBITION (compound concentration 10 μM): 82%; PERCENT XANTHINE OXIDASE INHIBITION (compound concentration 100 μM): 100%
O=C(OCc1ccc(Cl)cc1)c1ccc(-c2nnn[nH]2)cc1 [GE] | 100 | 100 | PERCENT XANTHINE OXIDASE INHIBITION (compound concentration 0.05 μM): 59%
CCCCCCOC(=O)c1ccc(-c2nnn[nH]2)cc1 [GF] | – | 28 | PERCENT XANTHINE OXIDASE INHIBITION (compound concentration 10 μM): 79%; PERCENT XANTHINE OXIDASE INHIBITION (compound concentration 100 μM): 97%
O=C(OC1CCCCC1)c1ccc(-c2nnn[nH]2)cc1 [GH] | – | – | PERCENT XANTHINE OXIDASE INHIBITION (compound concentration 0.03 μM): 65%; PERCENT XANTHINE OXIDASE INHIBITION [1]: 91%; PERCENT XANTHINE OXIDASE INHIBITION (compound concentration 1 μM, 1 µM): 100%
O=C(OCC12CC3CC(CC(C3)C1)C2)c1ccc(-c2nnn[nH]2)cc1 [GI] | 95 | 100 | PERCENT XANTHINE OXIDASE INHIBITION (compound concentration 0.03 μM): 75%
O=C(OCC(F)(F)F)c1ccc(-c2nnn[nH]2)cc1 [GJ] | 59 | 99 | PERCENT XANTHINE OXIDASE INHIBITION (compound concentration 0.01 μM): 12%
O=C(OCCN1CCOCC1)c1ccc(-c2nnn[nH]2)cc1 [GK] | 12 | 46 | PERCENT XANTHINE OXIDASE INHIBITION (compound concentration 0.01 μM): 3%
O=C(OCCN1CCCC1)c1ccc(-c2nnn[nH]2)cc1 [GL] | – | 4 | –
C#CCCCOC(=O)c1ccc(-c2nnn[nH]2)cc1 [GM] | 28 | 76 | PERCENT XANTHINE OXIDASE INHIBITION (compound concentration 0.01 μM): 8%
O=C(Oc1cc[n+]([O-])cc1)c1ccc(-c2nnn[nH]2)cc1 [GN] | – | 9 | –
O=C(OC1CCCCC1)c1ccc(-c2nnn[nH]2)cc1 [GO] | 18 | 82 | PERCENT XANTHINE OXIDASE INHIBITION (compound concentration 0.01 μM): 6%
O=C(OCC(F)(F)C(F)F)c1ccc(-c2nnn[nH]2)cc1 [GP] | 65 | 92 | PERCENT XANTHINE OXIDASE INHIBITION (compound concentration 0.01 μM): 9%
CCC#CCOC(=O)c1ccc(-c2nnn[nH]2)cc1 [GQ] | 35 | 78 | PERCENT XANTHINE OXIDASE INHIBITION (compound concentration 0.01 μM): 0%
C=C(C)C1CC=C(COC(=O)c2ccc(-c3nnn[nH]3)cc2)CC1 (centres unmarked) [GR] | 8 | 48 | PERCENT XANTHINE OXIDASE INHIBITION (compound concentration 0.01 μM): 0%
O=C(OCC(C(F)(F)F)C(F)(F)F)c1ccc(-c2nnn[nH]2)cc1 [GS] | 68 | 95 | PERCENT XANTHINE OXIDASE INHIBITION (compound concentration 0.01 μM): 13%
O=C(Oc1cccc(Br)c1)c1ccc(-c2nnn[nH]2)cc1 [GT] | 53 | 94 | PERCENT XANTHINE OXIDASE INHIBITION (compound concentration 0.01 μM): 8%
O=C(OCc1ccc(Br)cc1)c1ccc(-c2nnn[nH]2)cc1 [GU] | 69 | 94 | PERCENT XANTHINE OXIDASE INHIBITION (compound concentration 0.01 μM): 17%
O=C(OCC(Cl)(Cl)Cl)c1ccc(-c2nnn[nH]2)cc1 [GV] | 73 | 95 | PERCENT XANTHINE OXIDASE INHIBITION (compound concentration 0.01 μM): 14%
O=C(OCCN1C(=O)CCC1=O)c1ccc(-c2nnn[nH]2)cc1 [GW] | 9 | 39 | PERCENT XANTHINE OXIDASE INHIBITION (compound concentration 0.01 μM): 5%
O=C(OCc1ccccc1I)c1ccc(-c2nnn[nH]2)cc1 [GX] | – | 100 | PERCENT XANTHINE OXIDASE INHIBITION (compound concentration 0.01 μM, 0.01 µM): 19%; PERCENT XANTHINE OXIDASE INHIBITION [1]: 84%

SMILES | PERCENT XANTHINE OXIDASE INHIBITION (compound concentration 0.1 μM) [%] | PERCENT XANTHINE OXIDASE INHIBITION (compound concentration 1 μM) [%] | further results
O=C(OC1CCC2CCCCC2C1)c1ccc(-c2nnn[nH]2)cc1 (centres unmarked) [GY] | 11 | 76 | PERCENT XANTHINE OXIDASE INHIBITION (compound concentration 0.01 μM): 19%
O=C(OC(C1CCCCC1)C1CCCCC1)c1ccc(-c2nnn[nH]2)cc1 [GZ] | – | 8 | –
O=C(NC1CCCCC1)c1ccc(-c2nnn[nH]2)cc1 [HA] | 10 | 61 | –
O=C(NCc1ccc2c(c1)OCO2)c1ccc(-c2nnn[nH]2)cc1 [HB] | – | 25 | –
O=C(NCc1cccnc1)c1ccc(-c2nnn[nH]2)cc1 [HC] | – | 25 | –
CCOc1ccc(-c2nnn[nH]2)cc1 [HD] | – | – | PERCENT XANTHINE OXIDASE INHIBITION (compound concentration 100 μM): 60%
O=[N+]([O-])c1cc(-c2nnn[nH]2)ccc1Cl [HF] | – | – | PERCENT XANTHINE OXIDASE INHIBITION (compound concentration 100 μM): 80%
COc1cc(-c2nnn[nH]2)cc(OC)c1OC [HG] | – | – | PERCENT XANTHINE OXIDASE INHIBITION (compound concentration 100 μM): 22%
c1cncc(-c2ccc(-c3nnn[nH]3)cc2)c1 [HI] | – | 14 | PERCENT XANTHINE OXIDASE INHIBITION (compound concentration 10 μM): 24%; PERCENT XANTHINE OXIDASE INHIBITION (compound concentration 100 μM): 70%
c1cncc(-c2cccc(-c3nnn[nH]3)c2)c1 [HJ] | – | – | PERCENT XANTHINE OXIDASE INHIBITION (compound concentration 100 μM): 2%
CC(C)(C)OC(=O)N1CCN(C(=O)c2ccc(-c3nnn[nH]3)cc2)CC1 [HK] | – | – | PERCENT XANTHINE OXIDASE INHIBITION (compound concentration 100 μM): 43%
O=C(c1ccc(-c2nnn[nH]2)cc1)N1CCNCC1 [HL] | – | – | PERCENT XANTHINE OXIDASE INHIBITION (compound concentration 100 μM): 0%
COc1ccc(-c2nnn[nH]2)c2ccccc12 [HM] | – | – | PERCENT XANTHINE OXIDASE INHIBITION (compound concentration 100 μM): 27%
O=C(OCc1cccnc1)c1ccc(-c2nnn[nH]2)cc1 [HO] | 95 | 98 | PERCENT XANTHINE OXIDASE INHIBITION (compound concentration 0.05 μM): 46%
O=C(OCc1ccco1)c1ccc(-c2nnn[nH]2)cc1 [HP] | 91 | 100 | PERCENT XANTHINE OXIDASE INHIBITION (compound concentration 0.05 μM): 41%
O=C(OCCc1cccs1)c1ccc(-c2nnn[nH]2)cc1 [HQ] | 97 | 95 | PERCENT XANTHINE OXIDASE INHIBITION (compound concentration 0.05 μM): 53%
CCCOC(=O)c1ccc(-c2nnn[nH]2)cc1 [HR] | 95 | 95 | PERCENT XANTHINE OXIDASE INHIBITION (compound concentration 0.05 μM): 34%
O=C(NCC1CCCCC1)c1ccc(-c2nnn[nH]2)cc1 [HS] | 16 | 55 | PERCENT XANTHINE OXIDASE INHIBITION (compound concentration 0.03 μM): 8%
O=C(NC12CC3CC(CC(C3)C1)C2)c1ccc(-c2nnn[nH]2)cc1 [HT] | 23 | 62 | PERCENT XANTHINE OXIDASE INHIBITION (compound concentration 0.03 μM): 15%
O=S(=O)(NC12CC3CC(CC(C3)C1)C2)c1ccc(-c2nnn[nH]2)cc1 [HU] | – | 0 | –
O=S(=O)(NC1CCCCC1)c1ccc(-c2nnn[nH]2)cc1 [HV] | – | 0 | –

SMILES | PERCENT XANTHINE OXIDASE INHIBITION (compound concentration 0.1 μM) [%] | PERCENT XANTHINE OXIDASE INHIBITION (compound concentration 1 μM) [%] | further results
O=C(Nc1cccc(F)c1)c1ccc(-c2nnn[nH]2)cc1 [HW] | 62 | 89 | PERCENT XANTHINE OXIDASE INHIBITION (compound concentration 0.03 μM): 32%
O=C(Nc1ccccc1F)c1ccc(-c2nnn[nH]2)cc1 [HY] | 45 | 86 | PERCENT XANTHINE OXIDASE INHIBITION (compound concentration 0.03 μM): 20%
O=C(Nc1cccc(I)c1)c1ccc(-c2nnn[nH]2)cc1 [HZ] | 41 | 88 | PERCENT XANTHINE OXIDASE INHIBITION (compound concentration 0.03 μM): 20%
O=C(O)c1cccc(NC(=O)c2ccc(-c3nnn[nH]3)cc2)c1 [IB] | 64 | 94 | PERCENT XANTHINE OXIDASE INHIBITION (compound concentration 0.03 μM): 38%
O=C(O)Cc1cccc(NC(=O)c2ccc(-c3nnn[nH]3)cc2)c1 [ID] | 37 | 72 | PERCENT XANTHINE OXIDASE INHIBITION (compound concentration 0.03 μM): 13%
CCc1cccc(NC(=O)c2ccc(-c3nnn[nH]3)cc2)c1 [IE] | 38 | 87 | PERCENT XANTHINE OXIDASE INHIBITION (compound concentration 0.03 μM): 22%
CC(C)c1ccccc1NC(=O)c1ccc(-c2nnn[nH]2)cc1 [IF] | – | 16 | –
CCCCc1ccc(NC(=O)c2ccc(-c3nnn[nH]3)cc2)cc1 [IH] | 63 | 95 | PERCENT XANTHINE OXIDASE INHIBITION (compound concentration 0.03 μM): 33%
O=C(O)Cc1ccc(NC(=O)c2ccc(-c3nnn[nH]3)cc2)cc1 [II] | 45 | 90 | PERCENT XANTHINE OXIDASE INHIBITION (compound concentration 0.03 μM): 20%
COc1ccc(NC(=O)c2ccc(-c3nnn[nH]3)cc2)cc1 [IJ] | 58 | 93 | PERCENT XANTHINE OXIDASE INHIBITION (compound concentration 0.03 μM): 27%
COc1ccccc1NC(=O)c1ccc(-c2nnn[nH]2)cc1 [IK] | 17 | 55 | PERCENT XANTHINE OXIDASE INHIBITION (compound concentration 0.03 μM): 9%
COc1cccc(NC(=O)c2ccc(-c3nnn[nH]3)cc2)c1 [IL] | 46 | 86 | PERCENT XANTHINE OXIDASE INHIBITION (compound concentration 0.03 μM): 21%
CN(C(=O)c1ccc(-c2nnn[nH]2)cc1)c1ccccc1 [IM] | – | 0 | –
c1cc(-c2nnn[nH]2)ccc1OCC1CCCCC1 [IN] | 21 | 68 | xanthine oxidase activity (result in words) (summary of the table): inhibit xanthine oxidase activity
O=C(Nc1ccccc1)c1cccc(-c2nnn[nH]2)c1 [IO] | – | 0 | –
CCCCOc1ccc(NC(=O)c2ccc(-c3nnn[nH]3)cc2)cc1 [IQ] | 33 | 64 | PERCENT XANTHINE OXIDASE INHIBITION (compound concentration 0.03 μM): 36%
O=C(Nc1ccccc1)Nc1ccc(-c2nnn[nH]2)cc1 [IU] | 9 | 42 | PERCENT XANTHINE OXIDASE INHIBITION (compound concentration 0.03 μM): 3%
c1ccc(COc2ccc(-c3nnn[nH]3)cc2)cc1 [IV] | 10 | 35 | –
c1ccc(CCCOc2ccc(-c3nnn[nH]3)cc2)cc1 [IW] | 9 | 22 | –
O=C(Nc1ccc(Cl)cc1Cl)c1ccc(-c2nnn[nH]2)cc1 [IY] | 47 | 86 | PERCENT XANTHINE OXIDASE INHIBITION (compound concentration 0.03 μM): 26%
